Experimental data taken from patent US7547712B2 (priority 2006, dated 2009).

System: New Zealand White rabbits
Conditions: rabbit, in vivo, sc
Description: 100 female New Zealand White rabbits were tested according to the study design detailed below (Table 2). The vehicle/adjuvant and test article were administered via intramuscular injection. […] The pumps were surgically implanted subcutaneously. The dose volume of the test article and vehicle was 0.5 ml/kg. The dose rate of the pumps was approximately 5 μl/hr.
The test article and vehicle/adjuvant formulations were administered to the study animals once at 30 days prior to gestation, once at 9 days prior to gestation, and once on day 12 of gestation.

## CN1CCCC1c1cccnc1 (stereo not drawn) [Nicotine]
female, New Zealand White
  Mortality: 3
female
  Number of Does: Abortion: 5
  Number of Does: Found dead/euthanized in extremis: 2
  Number of Does: No. Delivered: 11
  Number of Does: No. Survived Day 28: 6
  Number of Does: No. whole litters dead: 4
  Number of Does: Not Pregnant: 2
  Number of Kits (Mean) LD 0-7: 47.8
  Number of Kits (Mean) LD 7-14: 100.0
  Number of Kits (Mean) LD 14-21: 100.0
  Number of Kits (Mean) LD 21-28: 100.0
  mean lactation index, representing kit survival from lactation day 0-7: 47.8%
  mean number of kits born: 6.8 kits/liter
  gestation food consumption: significantly decreased
  maternal body weight: decrease in maternal body weight
